Laboratory results taken from PMC12670405, “Second-Generation AURKA-Targeting PROTACs: Structural Optimization toward in Vivo Degradation in Neuroblastoma” (Journal of Medicinal Chemistry, 2025).

Tests used:
Assay in all cases: KINOMEscan scanMAX
Format in all cases: binding
Conditions in all cases: read-out: Percent Control
NEK11 = biological target: T1, NEK11 (Homo sapiens, UniProt Q8NG66)
T1 construct: purchased Eurofins Discovery (DiscoverX KINOMEscan scanMAX)
Protocol: (§1) The kinome-wide binding assay was performed by Eurofins Discovery using the scanMAX screening platform. More information can be found on the Eurofins Discovery Web site.

PIK3CA(E545A) = biological target: T2, PIK3CA(E545A) (Homo sapiens, UniProt P42336, E545A)
T2 construct: purchased Eurofins Discovery (DiscoverX KINOMEscan scanMAX)
Protocol: as §1

BMPR1A = biological target: T3, BMPR1A (Homo sapiens, UniProt P36894)
T3 construct: purchased Eurofins Discovery (DiscoverX KINOMEscan scanMAX)
Protocol: as §1

TEC = biological target: T4, TEC (Homo sapiens, UniProt P42680)
T4 construct: purchased Eurofins Discovery (DiscoverX KINOMEscan scanMAX)
Protocol: as §1

RIOK3 = biological target: T5, RIOK3 (Homo sapiens, UniProt O14730)
T5 construct: purchased Eurofins Discovery (DiscoverX KINOMEscan scanMAX)
Protocol: as §1

HIPK4 = biological target: T6, HIPK4 (Homo sapiens, UniProt Q8NE63)
T6 construct: purchased Eurofins Discovery (DiscoverX KINOMEscan scanMAX)
Protocol: as §1

FER = biological target: T7, FER (Homo sapiens, UniProt P16591)
T7 construct: purchased Eurofins Discovery (DiscoverX KINOMEscan scanMAX)
Protocol: as §1

BRSK2 = biological target: T8, BRSK2 (Homo sapiens, UniProt Q8IWQ3)
T8 construct: purchased Eurofins Discovery (DiscoverX KINOMEscan scanMAX)
Protocol: as §1

CDKL2 = biological target: T9, CDKL2 (Homo sapiens, UniProt Q92772)
T9 construct: purchased Eurofins Discovery (DiscoverX KINOMEscan scanMAX)
Protocol: as §1

EPHA2 = biological target: T10, EPHA2 (Homo sapiens, UniProt P29317)
T10 construct: purchased Eurofins Discovery (DiscoverX KINOMEscan scanMAX)
Protocol: as §1

INSRR = biological target: T11, INSRR (Homo sapiens, UniProt P14616)
T11 construct: purchased Eurofins Discovery (DiscoverX KINOMEscan scanMAX)
Protocol: as §1

[1] = biological target: T12, JAK3(JH1domain-catalytic) (Homo sapiens, UniProt P52333)
T12 construct: JAK3(JH1domain-catalytic); purchased Eurofins Discovery (DiscoverX KINOMEscan scanMAX)
Protocol: as §1

CAMKK1 = biological target: T13, CAMKK1 (Homo sapiens, UniProt Q8N5S9)
T13 construct: purchased Eurofins Discovery (DiscoverX KINOMEscan scanMAX)
Protocol: as §1

EGFR(L858R) = biological target: T14, EGFR(L858R) (Homo sapiens, UniProt P00533, L858R)
T14 construct: purchased Eurofins Discovery (DiscoverX KINOMEscan scanMAX)
Protocol: as §1

TAOK1 = biological target: T15, TAOK1 (Homo sapiens, UniProt Q7L7X3)
T15 construct: purchased Eurofins Discovery (DiscoverX KINOMEscan scanMAX)
Protocol: as §1

PFPK5(P.falciparum) = biological target: T16, PFPK5(P.falciparum) (Plasmodium falciparum, UniProt P61075)
T16 construct: purchased Eurofins Discovery (DiscoverX KINOMEscan scanMAX)
Protocol: as §1

SIK2 = biological target: T17, SIK2 (Homo sapiens, UniProt Q9H0K1)
T17 construct: purchased Eurofins Discovery (DiscoverX KINOMEscan scanMAX)
Protocol: as §1

TNK2 = biological target: T18, TNK2 (Homo sapiens, UniProt Q07912)
T18 construct: purchased Eurofins Discovery (DiscoverX KINOMEscan scanMAX)
Protocol: as §1

T17 sequence (Q9H0K1 whole entry): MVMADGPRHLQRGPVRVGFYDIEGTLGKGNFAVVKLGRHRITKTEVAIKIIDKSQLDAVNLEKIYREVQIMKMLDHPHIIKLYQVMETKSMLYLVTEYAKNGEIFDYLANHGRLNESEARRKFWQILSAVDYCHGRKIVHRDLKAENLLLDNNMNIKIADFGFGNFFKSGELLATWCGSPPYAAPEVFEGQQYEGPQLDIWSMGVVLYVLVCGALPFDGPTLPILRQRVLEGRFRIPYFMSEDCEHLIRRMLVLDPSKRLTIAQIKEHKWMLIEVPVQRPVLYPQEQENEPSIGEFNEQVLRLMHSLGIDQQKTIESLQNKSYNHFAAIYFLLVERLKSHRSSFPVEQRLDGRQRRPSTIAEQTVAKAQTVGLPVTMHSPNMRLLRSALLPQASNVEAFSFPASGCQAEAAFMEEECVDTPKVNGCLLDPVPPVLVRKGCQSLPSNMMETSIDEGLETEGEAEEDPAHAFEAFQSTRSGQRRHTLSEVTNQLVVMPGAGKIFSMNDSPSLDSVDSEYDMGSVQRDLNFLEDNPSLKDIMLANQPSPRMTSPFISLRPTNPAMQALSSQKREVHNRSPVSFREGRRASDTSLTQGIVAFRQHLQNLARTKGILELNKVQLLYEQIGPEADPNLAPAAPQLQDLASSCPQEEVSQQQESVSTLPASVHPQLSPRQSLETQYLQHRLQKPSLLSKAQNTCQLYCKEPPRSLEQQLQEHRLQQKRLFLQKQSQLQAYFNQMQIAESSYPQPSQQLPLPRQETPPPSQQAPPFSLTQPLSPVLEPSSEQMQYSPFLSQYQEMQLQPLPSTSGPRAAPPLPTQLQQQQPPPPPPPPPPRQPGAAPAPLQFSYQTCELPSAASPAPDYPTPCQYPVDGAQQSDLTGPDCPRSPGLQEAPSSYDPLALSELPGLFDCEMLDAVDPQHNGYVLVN
T15 sequence (Q7L7X3 whole entry): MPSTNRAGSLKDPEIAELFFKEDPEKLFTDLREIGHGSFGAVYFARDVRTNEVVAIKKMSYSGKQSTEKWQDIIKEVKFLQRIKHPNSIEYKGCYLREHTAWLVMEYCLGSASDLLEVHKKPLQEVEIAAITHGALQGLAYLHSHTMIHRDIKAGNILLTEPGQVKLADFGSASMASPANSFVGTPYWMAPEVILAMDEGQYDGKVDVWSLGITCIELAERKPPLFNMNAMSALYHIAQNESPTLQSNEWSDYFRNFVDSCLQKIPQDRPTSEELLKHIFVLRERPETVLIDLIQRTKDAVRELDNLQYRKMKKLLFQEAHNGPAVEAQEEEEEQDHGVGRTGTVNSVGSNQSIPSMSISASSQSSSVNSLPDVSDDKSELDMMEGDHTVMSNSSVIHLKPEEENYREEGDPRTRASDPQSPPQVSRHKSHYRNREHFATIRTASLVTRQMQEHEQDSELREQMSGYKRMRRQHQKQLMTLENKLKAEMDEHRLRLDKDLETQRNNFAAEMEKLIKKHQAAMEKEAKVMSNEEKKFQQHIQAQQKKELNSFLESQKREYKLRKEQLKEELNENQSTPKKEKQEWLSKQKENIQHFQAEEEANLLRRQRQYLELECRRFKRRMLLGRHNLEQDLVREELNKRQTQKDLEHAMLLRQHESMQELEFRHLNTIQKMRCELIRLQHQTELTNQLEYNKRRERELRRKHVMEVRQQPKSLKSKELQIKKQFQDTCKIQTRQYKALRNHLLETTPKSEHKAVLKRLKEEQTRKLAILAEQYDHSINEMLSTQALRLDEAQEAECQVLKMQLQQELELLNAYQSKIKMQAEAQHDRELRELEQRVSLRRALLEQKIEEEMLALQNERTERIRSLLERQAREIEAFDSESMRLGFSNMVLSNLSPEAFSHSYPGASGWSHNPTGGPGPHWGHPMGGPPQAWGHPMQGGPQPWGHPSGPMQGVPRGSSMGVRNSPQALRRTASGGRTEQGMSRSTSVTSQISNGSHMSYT
T6 sequence (Q8NE63 whole entry): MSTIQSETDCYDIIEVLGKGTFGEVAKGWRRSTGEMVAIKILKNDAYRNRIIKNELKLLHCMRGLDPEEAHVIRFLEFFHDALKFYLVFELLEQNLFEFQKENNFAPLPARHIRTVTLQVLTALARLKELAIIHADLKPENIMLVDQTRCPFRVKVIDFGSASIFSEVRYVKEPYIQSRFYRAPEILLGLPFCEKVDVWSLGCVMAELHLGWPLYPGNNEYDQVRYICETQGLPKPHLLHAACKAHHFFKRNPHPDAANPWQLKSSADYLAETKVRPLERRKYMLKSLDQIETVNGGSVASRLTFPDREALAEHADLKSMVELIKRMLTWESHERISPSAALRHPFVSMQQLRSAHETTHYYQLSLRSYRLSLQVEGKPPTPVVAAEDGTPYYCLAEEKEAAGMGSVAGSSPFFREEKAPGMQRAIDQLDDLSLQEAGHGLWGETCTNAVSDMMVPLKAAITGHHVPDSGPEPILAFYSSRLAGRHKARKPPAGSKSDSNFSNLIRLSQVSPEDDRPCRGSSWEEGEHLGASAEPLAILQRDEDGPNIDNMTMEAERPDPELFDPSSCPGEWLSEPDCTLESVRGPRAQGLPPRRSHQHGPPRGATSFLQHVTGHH
T7 sequence (P16591 whole entry): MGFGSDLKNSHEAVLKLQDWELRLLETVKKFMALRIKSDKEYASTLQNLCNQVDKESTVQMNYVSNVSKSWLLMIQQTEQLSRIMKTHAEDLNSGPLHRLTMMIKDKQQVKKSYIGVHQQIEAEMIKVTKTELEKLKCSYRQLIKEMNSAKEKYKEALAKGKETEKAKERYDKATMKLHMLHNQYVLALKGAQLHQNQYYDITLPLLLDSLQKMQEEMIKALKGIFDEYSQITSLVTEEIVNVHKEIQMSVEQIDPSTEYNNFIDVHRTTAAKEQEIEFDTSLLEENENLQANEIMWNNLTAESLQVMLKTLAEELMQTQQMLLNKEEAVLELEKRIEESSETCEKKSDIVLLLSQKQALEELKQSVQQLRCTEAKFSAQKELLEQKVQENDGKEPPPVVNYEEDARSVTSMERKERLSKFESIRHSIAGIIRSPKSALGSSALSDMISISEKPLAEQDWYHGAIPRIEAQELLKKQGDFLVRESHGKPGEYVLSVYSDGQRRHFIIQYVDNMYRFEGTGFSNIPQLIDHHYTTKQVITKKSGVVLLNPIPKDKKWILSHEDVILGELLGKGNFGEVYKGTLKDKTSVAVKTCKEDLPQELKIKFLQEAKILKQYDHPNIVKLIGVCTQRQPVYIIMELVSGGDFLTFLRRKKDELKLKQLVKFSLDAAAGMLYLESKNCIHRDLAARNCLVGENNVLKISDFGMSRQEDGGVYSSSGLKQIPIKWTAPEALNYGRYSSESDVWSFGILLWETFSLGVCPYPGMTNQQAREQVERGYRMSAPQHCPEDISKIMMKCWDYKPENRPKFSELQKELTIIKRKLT
T2 sequence (P42336 whole entry E545A): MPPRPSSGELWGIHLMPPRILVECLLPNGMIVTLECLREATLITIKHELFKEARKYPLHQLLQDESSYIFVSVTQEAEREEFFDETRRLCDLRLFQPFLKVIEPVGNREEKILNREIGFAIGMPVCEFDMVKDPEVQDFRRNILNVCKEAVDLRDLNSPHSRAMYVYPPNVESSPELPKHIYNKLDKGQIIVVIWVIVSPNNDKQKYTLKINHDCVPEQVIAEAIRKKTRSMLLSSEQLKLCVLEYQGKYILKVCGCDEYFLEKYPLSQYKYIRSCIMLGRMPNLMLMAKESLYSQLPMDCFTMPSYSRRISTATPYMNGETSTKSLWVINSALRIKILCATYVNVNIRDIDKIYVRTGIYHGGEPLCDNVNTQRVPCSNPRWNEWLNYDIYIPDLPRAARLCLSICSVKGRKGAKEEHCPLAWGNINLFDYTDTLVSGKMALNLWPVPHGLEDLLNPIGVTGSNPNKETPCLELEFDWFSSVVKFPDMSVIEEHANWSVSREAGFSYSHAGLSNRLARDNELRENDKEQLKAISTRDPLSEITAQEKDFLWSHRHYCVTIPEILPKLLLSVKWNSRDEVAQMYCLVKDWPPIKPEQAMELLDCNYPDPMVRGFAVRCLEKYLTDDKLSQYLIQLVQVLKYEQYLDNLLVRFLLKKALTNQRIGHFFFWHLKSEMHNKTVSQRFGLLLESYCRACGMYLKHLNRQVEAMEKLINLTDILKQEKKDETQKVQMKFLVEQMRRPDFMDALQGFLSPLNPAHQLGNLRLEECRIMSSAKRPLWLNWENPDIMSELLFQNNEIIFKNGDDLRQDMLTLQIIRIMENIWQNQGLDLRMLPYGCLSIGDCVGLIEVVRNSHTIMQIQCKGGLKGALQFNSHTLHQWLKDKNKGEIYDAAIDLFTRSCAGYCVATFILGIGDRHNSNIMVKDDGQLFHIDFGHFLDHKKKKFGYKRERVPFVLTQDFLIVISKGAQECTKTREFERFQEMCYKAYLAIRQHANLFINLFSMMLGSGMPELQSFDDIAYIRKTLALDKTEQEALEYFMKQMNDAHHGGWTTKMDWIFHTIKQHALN
T4 sequence (P42680 whole entry): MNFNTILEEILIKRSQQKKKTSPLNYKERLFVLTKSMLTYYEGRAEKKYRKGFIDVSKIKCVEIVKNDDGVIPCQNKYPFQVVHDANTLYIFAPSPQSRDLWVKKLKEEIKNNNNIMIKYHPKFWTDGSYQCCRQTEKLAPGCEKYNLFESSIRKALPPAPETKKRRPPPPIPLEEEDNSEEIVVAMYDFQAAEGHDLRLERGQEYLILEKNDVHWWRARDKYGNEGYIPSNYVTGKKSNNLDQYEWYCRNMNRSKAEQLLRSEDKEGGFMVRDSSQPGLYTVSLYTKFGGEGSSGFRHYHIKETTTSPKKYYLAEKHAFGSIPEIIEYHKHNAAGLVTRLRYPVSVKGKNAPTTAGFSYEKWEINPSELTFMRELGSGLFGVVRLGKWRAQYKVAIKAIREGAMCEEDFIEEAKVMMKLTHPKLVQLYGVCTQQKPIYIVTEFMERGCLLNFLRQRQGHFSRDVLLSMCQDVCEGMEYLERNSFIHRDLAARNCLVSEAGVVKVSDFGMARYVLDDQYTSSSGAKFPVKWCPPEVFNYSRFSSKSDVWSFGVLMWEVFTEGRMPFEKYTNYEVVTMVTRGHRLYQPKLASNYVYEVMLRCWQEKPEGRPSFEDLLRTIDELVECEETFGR

Cc1cc(Nc2ccc(F)c(CC3(C(=O)N4CCC(F)(CN5CCN(c6ccc(N7CCC(=O)NC7=O)cn6)CC5)CC4)CCN(Cc4cccc(Cl)c4F)CC3)n2)n[nH]1 [SK5527]
remaining binding at 0.1 µM (NEK11; 100 nM): 100% | remaining binding at 1 µM (NEK11; 1000 nM): 100% | remaining binding at 0.1 µM (PIK3CA(E545A); 100 nM): 72% | remaining binding at 1 µM (PIK3CA(E545A); 1000 nM): 100% | remaining binding at 0.1 µM (BMPR1A; 100 nM): 100% | remaining binding at 1 µM (BMPR1A; 1000 nM): 100% | remaining binding at 0.1 µM (TEC; 100 nM): 91% | remaining binding at 1 µM (TEC; 1000 nM): 69% | remaining binding at 0.1 µM (RIOK3; 100 nM): 96% | remaining binding at 1 µM (RIOK3; 1000 nM): 82% | remaining binding at 0.1 µM (HIPK4; 100 nM): 85% | remaining binding at 1 µM (HIPK4; 1000 nM): 81% | remaining binding at 0.1 µM (FER; 100 nM): 84% | remaining binding at 1 µM (FER; 1000 nM): 100% | remaining binding at 0.1 µM (BRSK2; 100 nM): 100% | remaining binding at 1 µM (BRSK2; 1000 nM): 100% | remaining binding at 0.1 µM (CDKL2; 100 nM): 90% | remaining binding at 1 µM (CDKL2; 1000 nM): 100% | remaining binding at 0.1 µM (EPHA2; 100 nM): 100% | remaining binding at 1 µM (EPHA2; 1000 nM): 100% | remaining binding at 0.1 µM (INSRR; 100 nM): 97% | remaining binding at 1 µM (INSRR; 1000 nM): 90% | remaining binding at 0.1 µM ([1]; 100 nM): 100% | remaining binding at 1 µM ([1]; 1000 nM): 80% | remaining binding at 0.1 µM (CAMKK1; 100 nM): 100% | remaining binding at 1 µM (CAMKK1; 1000 nM): 100% | remaining binding at 0.1 µM (EGFR(L858R); 100 nM): 97% | remaining binding at 1 µM (EGFR(L858R); 1000 nM): 83% | remaining binding at 0.1 µM (TAOK1; 100 nM): 79% | remaining binding at 1 µM (TAOK1; 1000 nM): 88% | remaining binding at 0.1 µM (PFPK5(P.falciparum); 100 nM): 89% | remaining binding at 1 µM (PFPK5(P.falciparum); 1000 nM): 80% | remaining binding at 0.1 µM (SIK2; 100 nM): 100% | remaining binding at 1 µM (SIK2; 1000 nM): 93% | remaining binding at 0.1 µM (TNK2; 100 nM): 62% | remaining binding at 1 µM (TNK2; 1000 nM): 25%
